US20040214803A1, “Use of vitamin d3 analogue for the treatment of autoimmune diabetes” (priority 2001, published 2004)

Key:
NOD mice = details: cited from earlier work
IL-12p75 = details: short treatment; Mattner et al. 2000; cited from earlier work
IL-12 = details: cited from earlier work
[1] = system: vascularized heart allograft; assay: Vascularized heart allograft survival, C57BL/6 into BALB/c recipients; type: in vivo, mouse; details: Dose 5 (unit not given) per os 3x/w every other day from d-1 until d+30
From the text: Fully vascularized hearts were grafted into the abdomen of recipient mice as described (Corry, R. J., H. J. Winn, and P. S. Russell. Primarily vascularized allografts of hearts in mice. The role of H-2D, H-2K, and non-H-2 antigens in rejection. Transplantation. 1973, 16:343). Graft survival was monitored by palpation and rejection was confirmed by direct graft inspection.

[2] = administered to NOD mice starting from three weeks of age

Compound: C=C1/C(=C\C=C2/CCC[C@]3(C)[C@@H]([C@H](C)CCCC(C)(C)O)CC[C@@H]23)C[C@@H](O)C[C@@H]1O [1,25(OH)2D3, 1,25-dihydroxyvitamin D3]
- preventing progression of diabetes (NOD mice; administered to NOD mice from 8 weeks of age): ineffective
- incidence of insulitis (NOD mice; [2]): reduces the incidence of insulitis
- type 1 DM development (NOD mice; [2]): prevents type 1 DM development
- LPS-induced serum levels of both cytokines (IL-12, IFN-γ) (IL-12p75): can be inhibited
- IL-12 production (IL-12): inhibits IL-12 production

Compound: C=C1/C(=C\C=C2/CCC[C@@]3(C)C2CCC3[C@@H](C)CCCC(C)(C)O)C[C@@H](O)C[C@@H]1O (stereo partly shown) [MC1288]
- incidence of disease (NOD mice; treatment of 8 week-old NOD mice, combined or alone): neither treatment alone was effective

Compound: C=C1/C(=C\C=C2/CCC[C@@]3(C)C2CCC3[C@H](C)CCCC(C)(C)O)C[C@@H](O)C[C@@H]1O (stereo partly shown) [Reference, reference compound]
- Graft survival (days) Mean [1]: 14.33 days
